The subject of experiment [1] is 5-HT1A (a serotonin receptor subtype). The following applies: Middlemiss et al., European J. of Pharmacol. 90 151 (1983); cited from earlier work.
Experiment [2] concerns 5-HT1A serotonin receptor. Conditions: cited from earlier work.
Another experiment concerns D-2 dopamine receptor. Nature of the experiment: inhibition of 3H-spiroperidol binding, homogenized limbic brain tissue (D-2 dopamine receptor affinity). Conditions: for % Inhibition 1 μM D-2: 3H-spiroperidol, limbic brain tissue. On the procedure: The relatively low D-2 dopamine receptor affinity of the compounds of this invention was established by a modification of the procedure of Fields et al., Brain Res., 136, pp. 578-584 (1977) and Yamamura et al., eds. Neurotransmitter Receptor Binding, Raven Press, N.Y. (1978), wherein homogenized limbic brain tissue is incubated with ^3 H-spiroperidol and various concentrations of test compound, filtered, washed and shaken with Hydrofluor scintillation cocktail (National Diagnostics) and counted in a Packard 460 CD scintillation counter.

In experiment [3] the target is T1, 5-HT-1A serotonin receptor (Rattus norvegicus, UniProt P19327).
T1 construct: 44: 1685-1696, 1985; from tissue
T1 sequence (P19327 1-422): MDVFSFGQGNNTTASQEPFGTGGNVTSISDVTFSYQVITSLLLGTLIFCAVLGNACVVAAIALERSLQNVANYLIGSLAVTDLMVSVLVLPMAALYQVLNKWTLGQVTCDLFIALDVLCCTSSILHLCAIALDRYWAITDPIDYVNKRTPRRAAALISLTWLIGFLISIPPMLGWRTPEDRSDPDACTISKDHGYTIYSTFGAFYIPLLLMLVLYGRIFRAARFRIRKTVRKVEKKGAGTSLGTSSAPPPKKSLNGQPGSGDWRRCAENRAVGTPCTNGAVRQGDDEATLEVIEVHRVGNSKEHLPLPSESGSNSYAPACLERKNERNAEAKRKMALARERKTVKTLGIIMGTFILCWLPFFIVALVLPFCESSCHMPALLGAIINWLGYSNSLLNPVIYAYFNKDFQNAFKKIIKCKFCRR
The experiment in a line: displacement of [3H]8-OH DPAT from the 5-HT-1A serotonin receptor. The format is binding. The following applies: for inhibition at 1 µM / Ki: [3H]8-OH DPAT; for inhibition at 1 µM: read-out: % Inhibition 1 μm 5 HT1A; for Ki: in parentheses after % inhibition, read-out: Ki 5 HT1A; for selectivity / separation of 5-HT1A vs D-2 binding (in words): 5-HT1A relative to D-2. The source says:
The serotonergic properties of the compounds of this invention were established by standard pharmacologically accepted procedures involving the measurement of the compound's ability to displace [^3 H]8-OH DPAT (dipropylaminotetralin) from the 5-HT-1A serotonin receptor by the procedure of Hall et al., J. Neurochem. 44: 1685-1696, 1985.

We go through 16 compounds from patent US4845221A, “Serotonergic substituted piperazinyl tetralins” (American Home Products Corporation, priority 1988, dated 1989).

Molecules are shown by their SMILES. “Also recorded” adds a separate entry of the source.

With `CCCN(CCC)C1CCc2cccc(O)c2C1` (stereo not shown) [8-OH DPAT, 8-hydroxy-2-(di-n-propylamino)-tetralin], the “5-HT1A agonist activity (in words)” value in experiment [1] is “selective 5-HT1A (a serotonin receptor subtype) agonist activity”. Besides, the “5-HT1A receptor affinity of known agents (in words)” value (“5-HT1A receptor affinity” for short) in experiment [2] was “selective 5-HT1A serotonin receptor affinity”.

Consider `COc1cccc2c1CC(N1CCN(c3cccc(C(F)(F)F)c3)CC1)CC2` (stereo not shown) [Compound 1, 1-(1,2,3,4-tetrahydro-8-methoxy-2-naphthalenyl)-4-[3-(trifluoromethyl)phenyl]piperazine], for which the “% Inhibition 1 μM D-2” value with D-2 dopamine receptor is 5%. Further, in experiment [3], the inhibition at 1 µM stood at 97% and the Ki is 0.011 µM.

Consider `Oc1cccc2c1CC(N1CCN(c3cccc(C(F)(F)F)c3)CC1)CC2` (stereo not shown) [Compound 2, 1-(1,2,3,4-tetrahydro-8-hydroxy-2-naphthalenyl)-4-[3-(trifluromethyl)phenyl]piperazine], for which, in the experiment on D-2 dopamine receptor, the “% Inhibition 1 μM D-2” value is recorded as 46%. In experiment [3], the inhibition at 1 µM was found to be 100% and the Ki stood at 0.014 µM.

Turning to `COc1cccc2c1CC(N1CCN(c3ncccn3)CC1)CC2` (stereo not shown) [Compound 3, 2-[4-(1,2,3,4-tetrahydro-8-methoxy-2-naphthalenyl)-1-piperazinyl]pyrimidine], in the experiment on D-2 dopamine receptor, the “% Inhibition 1 μM D-2” value was found to be 3%. Also, in experiment [3], the inhibition at 1 µM was 84.6% and the Ki came out at 0.063 µM.

On to `Oc1cccc2c1CC(N1CCN(c3ncccn3)CC1)CC2` (stereo not shown) [Compound 4, 2-[4-(1,2,3,4-tetrahydro-8-hydroxy-2-naphthalenyl)-1-piperazinyl]pyrimidine], for which, in the experiment with D-2 dopamine receptor, the “% Inhibition 1 μM D-2” value stood at 0%. In experiment [3], the inhibition at 1 µM was determined as 91%, the “selectivity / separation of 5-HT1A vs D-2 binding (in words)” value (shortened to “selectivity / separation of 5-HT1A”) was “most selective serotonin receptor binding” and the Ki is 0.109 µM.

In the case of `COc1ccccc1N1CCN(C2CCc3cccc(OC)c3C2)CC1` (stereo not shown) [Compound 5], in the experiment with D-2 dopamine receptor, the “D-2 dopamine receptor binding/affinity (in words)” value is reported as “relatively high dopamine receptor binding” and the “% Inhibition 1 μM D-2” value was determined as 72%. For the same compound, in experiment [3], the “5-HT1A binding/affinity (in words)” value is given as “almost complete loss of serotonin receptor agonism”, the inhibition at 1 µM stood at 4% and the “selectivity / separation of 5-HT1A” value is listed as “reverses the selective activity”.

As to `COc1ccc2c(c1)CC(N1CCN(c3cccc(C(F)(F)F)c3)CC1)CC2` (stereo not shown) [Compound 6], in the experiment on D-2 dopamine receptor, the “D-2 dopamine receptor binding/affinity (in words)” value was “relative high dopamine receptor binding” and the “% Inhibition 1 μM D-2” value worked out at 49%. Also, in experiment [3], the “5-HT1A binding/affinity (in words)” value was “reduced 5-HT1A agonism”, the inhibition at 1 µM turned out to be 77% and the “selectivity / separation of 5-HT1A” value is “unacceptable separation of properties”.

Turning to `COc1ccc2c(c1)CC(N1CCN(c3ccccc3OC)CC1)CC2` (stereo not shown) [Compound 7], in the experiment with D-2 dopamine receptor, the “D-2 dopamine receptor binding/affinity (in words)” value was “higher D-2 binding” and the “% Inhibition 1 μM D-2” value came to 65%. The inhibition at 1 µM in experiment [3] is 93%.

Turning to `COc1ccc2c(c1)CC(N1CCN(c3ncccn3)CC1)CC2` (stereo not shown) [Compound 8], in the experiment with D-2 dopamine receptor, the “% Inhibition 1 μM D-2” value turned out to be 11%. In experiment [3], the inhibition at 1 µM turned out to be 83% and the “selectivity / separation of 5-HT1A” value is listed as “improved separation of properties with emphasis on 5-HT1A binding”.

As for `COc1ccc2c(c1)CCC(N1CCN(c3cccc(C(F)(F)F)c3)CC1)C2` (stereo not shown) [Compound 9], in the experiment on D-2 dopamine receptor, the “D-2 dopamine receptor binding/affinity (in words)” value is “increased D- 2 binding markedly” and the “% Inhibition 1 μM D-2” value was determined as 65%. Besides, the inhibition at 1 µM in experiment [3] was 97%.

Take `Oc1ccc2c(c1)CCC(N1CCN(c3cccc(C(F)(F)F)c3)CC1)C2` (stereo not shown) [Compound 10]: in the experiment on D-2 dopamine receptor, the “D-2 dopamine receptor binding/affinity (in words)” value is “which property was retained” and the “% Inhibition 1 μM D-2” value was 72%. Moreover, the inhibition at 1 µM in experiment [3] came to 87%.

Consider `COc1ccc2c(c1)CCC(N1CCN(c3ncccn3)CC1)C2` (stereo not shown) [Compound 11], for which, in experiment [3], the “5-HT1A binding/affinity (in words)” value is listed as “marked reduction in 5-HT1A binding” and the inhibition at 1 µM was 44%.

On to `Oc1ccc2c(c1)CCC(N1CCN(c3ncccn3)CC1)C2` (stereo not shown) [Compound 12], for which, in the experiment on D-2 dopamine receptor, the “D-2 dopamine receptor binding/affinity (in words)” value is given as “negligible D-2 binding” and the “% Inhibition 1 μM D-2” value was 7%. In addition, in experiment [3], the “5-HT1A binding/affinity (in words)” value was “negligible activity” and the inhibition at 1 µM turned out to be 15%.

Consider `O=C1CC2(CCCC2)CC(=O)N1CCCCN1CCN(c2ncccn2)CC1` [buspirone], for which the “5-HT1A receptor affinity” value in experiment [2] was “potent affinity; also recorded: selective 5-HT1A serotonin receptor affinity”.

As for `CC1(C)CC(=O)N(CCCCN2CCN(c3ncccn3)CC2)C(=O)C1` [gepirone], in experiment [2], the “5-HT1A receptor affinity” value is reported as “selective 5-HT1A serotonin receptor affinity”.

In the case of `O=C1c2ccccc2S(=O)(=O)N1CCCCN1CCN(c2ncccn2)CC1` [ipsapirone], the “5-HT1A receptor affinity” value in experiment [2] is listed as “selective 5-HT1A serotonin receptor affinity”.
